Experiments:
[1] = tested on: LPS-stimulated human monocytic cell line THP-1; experiment: Inhibition of pro-inflammatory cytokine secretion by LPS-stimulated THP-1 cells (ELISA); format: cell-based; conditions: 1.5 hr pre-incubation, LPS 1 μg/mL 24 hr
Experimental: Cell-based assays. Human monocytic cell line THP-1 (ATCC, Manassas, VA) was cultured in RPMI media supplemented with 10% fetal bovine serum (FBS) and antibiotics penicillin/streptomycin in a 37° C. 5% CO 2 incubator. Cells were plated at 0.25×10^6 cells/well in a 24-well cell culture plate and pre-incubated for 1.5 hr with Glatopa, PT-001 or PT-002 at the final concentration 0.1 μg/mL or 10 μg/mL each, followed by addition of lipopolysaccharide (LPS) at the final concentration of 1 μg/mL and incubation for 24 hr in a 37° C. 5% CO2 incubator. Plates were centrifuged and supernatants (100 μL) were tested for levels of pro-inflammatory cytokines IL-1β, IL-6 and TNF-α using commercial ELISA kits (R&D System for IL-1β, BioLegend for IL-6 and TNF-α). […] Percent inhibition is calculated as 100-(cytokine concentration in presence of inhibitor/cytokine concentration without inhibitor*100).

[2] = tested on: MOG-induced EAE in C57B1/6 female mice; experiment: Prophylactic treatment of MOG35-55-induced EAE, a mouse model of MS; format: in vivo; conditions: for Incidence of EAE: 500 μg single dose co-administered with MOG 35-55 in CFA, scored Day 7 to Day 28
From the text: FIG. 2 is a graph showing prophylactic treatment of MOG-induced EAE in mice (an animal model for multiple sclerosis (MS)) using an EERP according to the present invention. EAE was induced in C57B1/6 female mice at 10 weeks of age by MOG35-55 (Control; depicted as diamonds) and treated prophylactically by co-administration of Glatopa (depicted as triangles), PT-001 (YFAK random copolymer, depicted as open squares), or PT-002 (EERP consisting of linear random polypeptide YFAK with the peptide AYKAAA embedded in it; depicted as cross) at 500 μg/dose each. Mice (12 per treatment group) were monitored for signs of disease for 28 days post immunization. Numbers on the ordinate represent mean clinical score of clinical symptoms monitored for the days shown on the abscissa.
FIG. 3 is a graph showing prophylactic treatment of MOG-induced EAE in mice using two different doses of an EERP according to the present invention. […] Mice (10 per treatment group) were monitored for signs of disease for 28 days post immunization. Numbers on the ordinate represent mean clinical score of clinical symptoms monitored for the days shown on the abscissa.
The EERP of the invention is further tested in vivo in a prophylactic model of MS, EAE, which is induced in female mice of C57B1/6J strain by MOG 35-55 encephalitogenic peptide co-administered with the EERP in Complete Freund's Adjuvant. […] Disease severity is based on clinical observations and is assessed on the scale from 0 to 5. […]
Prophylactic treatment of EAE, a mouse model of MS. […] Mice (12 per treatment group) were monitored daily in a blind fashion starting from Day 7 for signs of disease for 28 days post immunization. […]
Prophylactic treatment of EAE, a mouse model of MS, by 2 different doses of EERP. […] Mice (10 per treatment group) were monitored daily in a blind fashion starting from Day 7 for signs of disease for 28 days post immunization. […]

relapsing forms of MS = conditions: cited from earlier work
[3] = tested on: experimental allergic encephalomyelitis (EAE); conditions: mouse model for multiple sclerosis; cited from earlier work

## glatiramer acetate [Glatopa]
[1]; 0.1 μg/mL compound
  Percent inhibition (%) IL-1b: 22%
  Percent inhibition (%) IL-6: −10%
  Percent inhibition (%) TNF-a: −162%
[1]; 10 μg/mL compound
  Percent inhibition (%) IL-1b: 42%
  Percent inhibition (%) IL-6: −21%
  Percent inhibition (%) TNF-a: −37%
[2]
  Incidence of EAE: 67%

## poly (Y, E, A, K) [Cop 1]
Relapsing forms of MS
  Reduction in relapses: about 30%
[3]
  Suppression of EAE: capable of suppressing experimental allergic encephalomyelitis

## C[N+]1(C)CCC(OC(=O)C(O)(c2ccccc2)C2CCCC2)C1 (centres unmarked) [PT-001]
[1]; 0.1 μg/mL compound
  Percent inhibition (%) IL-1b: 21%
  Percent inhibition (%) IL-6: −8%
  Percent inhibition (%) TNF-a: −5%
[1]; 10 μg/mL compound
  Percent inhibition (%) IL-1b: 77%
  Percent inhibition (%) IL-6: 84%
  Percent inhibition (%) TNF-a: 34%
[2]
  Incidence of EAE: 0%
[2]; Example 2: 500 μg/dose, single dose in immunization emulsion, subcutaneous, 28 days post immunization
  Signs of disease (clinical score): did not exhibit any signs of disease

Source: patent US20230414732A1, “COMPOSITIONS OF EMBEDDED EPITOPE RANDOM PEPTIDES (EERP) FOR TREATMENT OF IMMUNE-MEDIATED CONDITIONS, AND METHODS OF USE” (PALENA THERAPEUTICS, INC., priority 2020, published 2023)
